≈ marks a conversion by molar mass, not a printed value.
What was measured:
Type in all cases: cell-based
[1] = test system: S. typhimurium invasion of human epithelial cell line (Henle 407); assay: Salmonella invasion assay; conditions: Henle 407 cells, triplicate
Protocol: The effect of T3SS inhibitor candidates on the ability of S. typhimurium to invade a cultured human epithelial cell line (Henle 407) was performed in a method similar to one previously described ([Chatterjee et al., 2011]). Henle 407 cells were grown in DMEM with 10% fetal calf serum at 37°C in 5% CO2 in 24-well plates. The plasmid pRK2-SipD with WT SipD was electroporated into the S. typhimurium SipD ^− strain and single colonies were inoculated into LB media supplemented with 25 mg/L trimethoprim, 50 mg/L ampicillin, 50 mg/L kanamycin and grown in standing cultures overnight. A 10 ml LB culture with 1 mM IPTG was inoculated with 1 ml of overnight bacterial growth, and incubated at 37°C on standing for 2.5–3 h. Approximately 15–30 uL of bacterial suspension was added with 300 uL DMEM into the Henle 407 cells and incubated at 37°C for 60 min to allow invasion before the suspension was removed by aspiration. The Henle 407 cells were incubated with fresh DMEM with 100 mg/L of gentamycin for 1.5 h, aspirated, rinsed with DMEM, and lysed with 1% Triton X-100 to free the entrapped bacteria. The number of bacterial colonies, which correlated with invasiveness, was estimated by serial dilution and plating. The Salmonella invasion assay was done in triplicate.

[2] = test system: S. typhimurium in RAW 264.7 cells; assay: Intracellular killing assay; conditions: 1 h, vs non-treated S. typhimurium group
Protocol: The intracellular killing experiment was performed according to the previous reported protocol ([Birhanu et al., 2018]). RAW 264.7 cells (10^5 cells/ml) were cultured in 24-well plates, and then treated with S. Typhimurium (10^7 CFU/ml) and further incubated for 45 min. After the cells were washed, the compound 5 (8 μg/ml), […] (19 μg/ml) and 32 (34 μg/ml) or gatifloxacin (3 μg/ml) were respectively added and incubated for 1 h at 37 °C. Finally, cells were treated with gentamicin (100 μg/ml) for 1 h and lysed with 0.1% of trition × 100 before being serially diluted and plated on LB agar. The cells infected with S. Typhimurium without treatment was used as the control.

S. typhi = assay: In vitro anti-Salmonella bioassay (MIC); conditions: Salmonella enterica, 37°C 24 h, mean ± SD, three times
Protocol: (§1) The anti-Salmonella activities of these compounds were performed according to the previous reported protocol ([Wei et al., 2016]), using the minimum inhibitory concentration (MIC) with different strains, including S. enteritidis, S. typhi, S. typhimurium, S. paratyphi, S. and abortus equi. Gatifloxacin was used as positive controls. The test compounds 5, 19, and 32 in DMSO were prepared and then poured into 96-well plates. The final concentration of o.39–100 μg/ml underwent a twofold serial dilution. The bacteria were incubated with a series of different concentrations of compounds at 37°C for 24 h. The microbacterial growth was measured at the absorption of 630 nm. All experiments were carried out in triplicate.

S. typhimurium = assay: In vitro anti-Salmonella bioassay (MIC); conditions: Salmonella enterica, 37°C 24 h, mean ± SD, three times
Protocol: as §1

S. paratyphi = assay: In vitro anti-Salmonella bioassay (MIC); conditions: Salmonella enterica, 24 h
Protocol: as §1

S. abortus equi = assay: In vitro anti-Salmonella bioassay (MIC); conditions: Salmonella enterica, 37°C 24 h, mean ± SD, three times
Protocol: as §1

S. enteritidis = assay: In vitro anti-Salmonella bioassay (MIC); conditions: Salmonella enterica, 37°C 24 h, mean ± SD, three times
Protocol: as §1

[3] = In vitro cytotoxicity assay (MTT); conditions: mouse, RAW 264.7 cells, read-out: cell viability
Protocol: To study the cytotoxic effects of compounds on cell viability, the RAW 264.7 cells were seeded into 96-well plates at 1 ×10^4 cells/well and allowed to attach for 24 h. The medium was replaced with 100 μL medium containing the indicated concentrations of compounds and further incubated for 24 h. Each well was added 10 μL MTT (5 mg/ml in PBS) and the plates were incubated for 4 h at 37°C. Supernatants were aspirated and formed formazan was dissolved in 100 μL of dimethyl sulfoxide (DMSO). The optical density (OD) was measured at an absorbance wavelength of 490 nm using a Microplate Reader (Tecan, Switzerland).

Structure (SMILES) | effect on invasiveness [1] | decrease of intracellular survival of S. typhimurium ([2]; 8 μg/ml) [%] | MIC (S. typhi) [µg/mL] | MIC (S. typhimurium) [µg/mL] | MIC (S. paratyphi) [µg/mL] | MIC (S. abortus equi) [µg/mL] | MIC (S. enteritidis) [µg/mL] | viability at 24 h, 8 μg/ml ([3]; 8 μg/ml) [%] | decrease of intracellular survival of S. typhimurium ([2]; 19 μg/ml) [%] | viability at 24 h, 19 μg/ml ([3]; 19 μg/ml) [%] | decrease of intracellular survival of S. typhimurium ([2]; 34 μg/ml) [%] | viability at 24 h, 34 μg/ml ([3]; 34 μg/ml) [%] | intracellular survival suppression of S. typhimurium ([2]; 3 μg/ml) [%]
O=C(O)c1ccc(Cn2nnc3sc4c(c3c2=O)CCCC4)cc1 [Compound 5] | most drastic effect on the invasiveness | 44.4 | 12.3 ± 2.1 (≈ 36 µM) | 8 ± 2 (≈ 23.4 µM) | 24.3 ± 3.5 (≈ 71.2 µM) | 5 ± 1 (≈ 14.6 µM) | 31.6 ± 3.6 (≈ 92.6 µM) | 84.2 ± 5.45 | – | – | – | – | –
Nc1c(S(=O)(=O)O)ccc2c1C(=O)c1ccccc1C2=O [Compound 19] | most drastic effect on the invasiveness | – | 31.6 ± 5 (≈ 104 µM) | 19.1 ± 3.1 (≈ 63 µM) | 16.3 ± 3.1 (≈ 53.7 µM) | 3 ± 1 (≈ 9.89 µM) | 53.3 ± 4.9 (≈ 176 µM) | – | 32.5 | 91.5 ± 7.09 | – | – | –
Nc1c(-c2ccc(Cl)cc2)cnn1-c1ccc(C(=O)O)cc1 [Compound 32] | most drastic effect on the invasiveness | – | 44 ± 4.6 (≈ 140 µM) | 34.3 ± 3.8 (≈ 109 µM) | 22 ± 2.6 (≈ 70.1 µM) | 1.2 ± 0.3 (≈ 3.82 µM) | 22 ± 3 (≈ 70.1 µM) | – | – | – | 52.2 | 86.4 ± 6.04 | –
COc1c(N2CCNC(C)C2)c(F)cc2c(=O)c(C(=O)O)cn(C3CC3)c12 (stereo not drawn) [Gatifloxacin, reference compound] | – | – | 9.7 ± 2.5 (≈ 25.8 µM) | 3.3 ± 1.2 (≈ 8.79 µM) | 3 ± 1.7 (≈ 7.99 µM) | 2 ± 1 (≈ 5.33 µM) | 7.7 ± 1.5 (≈ 20.5 µM) | – | – | – | – | – | 60.2

Reference: article PMC8635108, “Identification of Novel Type Three Secretion System (T3SS) Inhibitors by Computational Methods and Anti-Salmonella Evaluations” (Frontiers in Pharmacology, 2021)
